Assay results reported in the NIST ThermoML archive (doi:10.1016/j.tca.2009.06.015).
± gives the expanded uncertainty stated by the source.

Key:
[1] = refractive index (Na D-line) (dimensionless); xn = mol fraction of the nth substance listed; settings: 101 kPa, Liquid, Standard Abbe refractometry
[2] = xn = mol fraction of the nth substance listed; settings: 101 kPa, Liquid; for viscosity: Capillary tube (Ostwald / Ubbelohde) method; for mass density: Vibrating tube method

## CCCCCC(C)O (centres undefined) [2-heptanol] + CC#N
[1]; 293.15 K, x2 = 0
  refractive index: 1.4206 ± 0.0021
[1]; 293.15 K, x2 = 0.1142
  refractive index: 1.417 ± 0.002
[1]; 293.15 K, x2 = 0.1947
  refractive index: 1.4145 ± 0.002
[1]; 293.15 K, x2 = 0.251
  refractive index: 1.4124 ± 0.002
[1]; 293.15 K, x2 = 0.3491
  refractive index: 1.4094 ± 0.002
[1]; 293.15 K, x2 = 0.4525
  refractive index: 1.4042 ± 0.002
[1]; 293.15 K, x2 = 0.5436
  refractive index: 1.3986 ± 0.002
[1]; 293.15 K, x2 = 0.6702
  refractive index: 1.3881 ± 0.002
[1]; 293.15 K, x2 = 0.7574
  refractive index: 1.3793 ± 0.002
[1]; 293.15 K, x2 = 0.877
  refractive index: 1.3637 ± 0.002
[1]; 293.15 K, x2 = 0.9588
  refractive index: 1.3516 ± 0.002
[1]; 298.15 K, x2 = 0
  refractive index: 1.4188 ± 0.0021
[1]; 298.15 K, x2 = 0.1142
  refractive index: 1.4158 ± 0.002
[1]; 298.15 K, x2 = 0.1947
  refractive index: 1.4146 ± 0.002
[1]; 298.15 K, x2 = 0.251
  refractive index: 1.4129 ± 0.002
[1]; 298.15 K, x2 = 0.3491
  refractive index: 1.4094 ± 0.002
[1]; 298.15 K, x2 = 0.4525
  refractive index: 1.4039 ± 0.002
[1]; 298.15 K, x2 = 0.5436
  refractive index: 1.3979 ± 0.002
[1]; 298.15 K, x2 = 0.6702
  refractive index: 1.3873 ± 0.002
[1]; 298.15 K, x2 = 0.7574
  refractive index: 1.3781 ± 0.002
[1]; 298.15 K, x2 = 0.877
  refractive index: 1.3629 ± 0.002
[1]; 298.15 K, x2 = 0.9588
  refractive index: 1.3503 ± 0.0021
[1]; 303.15 K, x2 = 0
  refractive index: 1.4165 ± 0.0021
[1]; 303.15 K, x2 = 0.1142
  refractive index: 1.4154 ± 0.002
[1]; 303.15 K, x2 = 0.1947
  refractive index: 1.4147 ± 0.002
[1]; 303.15 K, x2 = 0.251
  refractive index: 1.4135 ± 0.002
[1]; 303.15 K, x2 = 0.3491
  refractive index: 1.4093 ± 0.002
[1]; 303.15 K, x2 = 0.4525
  refractive index: 1.4029 ± 0.002
[1]; 303.15 K, x2 = 0.5436
  refractive index: 1.3973 ± 0.002
[1]; 303.15 K, x2 = 0.6702
  refractive index: 1.3863 ± 0.002
[1]; 303.15 K, x2 = 0.7574
  refractive index: 1.3774 ± 0.0021
[1]; 303.15 K, x2 = 0.877
  refractive index: 1.362 ± 0.0021
[1]; 303.15 K, x2 = 0.9588
  refractive index: 1.3481 ± 0.0021
[1]; 308.15 K, x2 = 0
  refractive index: 1.4143 ± 0.0021
[1]; 308.15 K, x2 = 0.1142
  refractive index: 1.4139 ± 0.0021
[1]; 308.15 K, x2 = 0.1947
  refractive index: 1.413 ± 0.0021
[1]; 308.15 K, x2 = 0.251
  refractive index: 1.4116 ± 0.0021
[1]; 308.15 K, x2 = 0.3491
  refractive index: 1.4079 ± 0.0021
[1]; 308.15 K, x2 = 0.4525
  refractive index: 1.4022 ± 0.002
[1]; 308.15 K, x2 = 0.5436
  refractive index: 1.3958 ± 0.0021
[1]; 308.15 K, x2 = 0.6702
  refractive index: 1.3845 ± 0.0021
[1]; 308.15 K, x2 = 0.7574
  refractive index: 1.3744 ± 0.0022
[1]; 308.15 K, x2 = 0.877
  refractive index: 1.3576 ± 0.0022
[1]; 308.15 K, x2 = 0.9588
  refractive index: 1.3452 ± 0.0022
[2]; 293.15 K, x2 = 0
  viscosity: 6.52 ± 0.66 mPa·s
  mass density: 817.18 ± 0.3 kg/m3
[2]; 293.15 K, x2 = 0.1142
  viscosity: 4.326 ± 0.44 mPa·s
  mass density: 814.97 ± 0.3 kg/m3
[2]; 293.15 K, x2 = 0.1947
  viscosity: 3.337 ± 0.34 mPa·s
  mass density: 813.16 ± 0.31 kg/m3
[2]; 293.15 K, x2 = 0.251
  viscosity: 2.77 ± 0.28 mPa·s
  mass density: 811.78 ± 0.31 kg/m3
[2]; 293.15 K, x2 = 0.3491
  viscosity: 2.133 ± 0.21 mPa·s
  mass density: 809.24 ± 0.31 kg/m3
[2]; 293.15 K, x2 = 0.4525
  viscosity: 1.584 ± 0.16 mPa·s
  mass density: 806.32 ± 0.31 kg/m3
[2]; 293.15 K, x2 = 0.5436
  viscosity: 1.239 ± 0.12 mPa·s
  mass density: 803.52 ± 0.31 kg/m3
[2]; 293.15 K, x2 = 0.6702
  viscosity: 0.8636 ± 0.087 mPa·s
  mass density: 798.9 ± 0.3 kg/m3
[2]; 293.15 K, x2 = 0.7574
  viscosity: 0.6732 ± 0.068 mPa·s
  mass density: 795.18 ± 0.31 kg/m3
[2]; 293.15 K, x2 = 0.9588
  viscosity: 0.3857 ± 0.039 mPa·s
  mass density: 784.77 ± 0.31 kg/m3
[2]; 293.15 K, x2 = 0.877
  mass density: 789.27 ± 0.31 kg/m3
[2]; 298.15 K, x2 = 0
  viscosity: 5.33 ± 0.54 mPa·s
  mass density: 813.33 ± 0.3 kg/m3
[2]; 298.15 K, x2 = 0.1142
  viscosity: 3.583 ± 0.36 mPa·s
  mass density: 811.07 ± 0.31 kg/m3
[2]; 298.15 K, x2 = 0.1947
  viscosity: 2.821 ± 0.28 mPa·s
  mass density: 809.19 ± 0.31 kg/m3
[2]; 298.15 K, x2 = 0.251
  viscosity: 2.402 ± 0.24 mPa·s
  mass density: 807.74 ± 0.31 kg/m3
[2]; 298.15 K, x2 = 0.3491
  viscosity: 1.853 ± 0.19 mPa·s
  mass density: 805 ± 0.31 kg/m3
[2]; 298.15 K, x2 = 0.4525
  viscosity: 1.395 ± 0.14 mPa·s
  mass density: 802.07 ± 0.31 kg/m3
[2]; 298.15 K, x2 = 0.5436
  viscosity: 1.106 ± 0.11 mPa·s
  mass density: 799.12 ± 0.31 kg/m3
[2]; 298.15 K, x2 = 0.6702
  viscosity: 0.7855 ± 0.079 mPa·s
  mass density: 794.43 ± 0.31 kg/m3
[2]; 298.15 K, x2 = 0.7574
  viscosity: 0.6191 ± 0.062 mPa·s
  mass density: 790.57 ± 0.31 kg/m3
[2]; 298.15 K, x2 = 0.9588
  viscosity: 0.3652 ± 0.037 mPa·s
  mass density: 779.64 ± 0.31 kg/m3
[2]; 298.15 K, x2 = 0.877
  mass density: 784.26 ± 0.31 kg/m3
[2]; 303.15 K, x2 = 0
  viscosity: 4.301 ± 0.43 mPa·s
  mass density: 809.44 ± 0.31 kg/m3
[2]; 303.15 K, x2 = 0.1142
  viscosity: 3.03 ± 0.3 mPa·s
  mass density: 807.06 ± 0.31 kg/m3
[2]; 303.15 K, x2 = 0.1947
  viscosity: 2.409 ± 0.24 mPa·s
  mass density: 805.14 ± 0.31 kg/m3
[2]; 303.15 K, x2 = 0.251
  viscosity: 2.066 ± 0.21 mPa·s
  mass density: 803.62 ± 0.31 kg/m3
[2]; 303.15 K, x2 = 0.3491
  viscosity: 1.619 ± 0.16 mPa·s
  mass density: 800.93 ± 0.31 kg/m3
[2]; 303.15 K, x2 = 0.4525
  viscosity: 1.251 ± 0.13 mPa·s
  mass density: 797.79 ± 0.31 kg/m3
[2]; 303.15 K, x2 = 0.5436
  viscosity: 0.9893 ± 0.099 mPa·s
  mass density: 794.69 ± 0.31 kg/m3
[2]; 303.15 K, x2 = 0.6702
  viscosity: 0.7174 ± 0.072 mPa·s
  mass density: 789.88 ± 0.31 kg/m3
[2]; 303.15 K, x2 = 0.7574
  viscosity: 0.5762 ± 0.058 mPa·s
  mass density: 786 ± 0.31 kg/m3
[2]; 303.15 K, x2 = 0.9588
  viscosity: 0.3483 ± 0.035 mPa·s
  mass density: 774.36 ± 0.31 kg/m3
[2]; 303.15 K, x2 = 0.877
  mass density: 779.5 ± 0.31 kg/m3
[2]; 308.15 K, x2 = 0
  viscosity: 3.528 ± 0.36 mPa·s
  mass density: 805.5 ± 0.31 kg/m3
[2]; 308.15 K, x2 = 0.1142
  viscosity: 2.578 ± 0.26 mPa·s
  mass density: 803.17 ± 0.31 kg/m3
[2]; 308.15 K, x2 = 0.1947
  viscosity: 2.072 ± 0.21 mPa·s
  mass density: 801.12 ± 0.31 kg/m3
[2]; 308.15 K, x2 = 0.251
  viscosity: 1.816 ± 0.18 mPa·s
  mass density: 799.49 ± 0.31 kg/m3
[2]; 308.15 K, x2 = 0.3491
  viscosity: 1.466 ± 0.15 mPa·s
  mass density: 796.53 ± 0.31 kg/m3
[2]; 308.15 K, x2 = 0.4525
  viscosity: 1.112 ± 0.11 mPa·s
  mass density: 793.31 ± 0.31 kg/m3
[2]; 308.15 K, x2 = 0.5436
  viscosity: 0.8985 ± 0.09 mPa·s
  mass density: 790.11 ± 0.31 kg/m3
[2]; 308.15 K, x2 = 0.6702
  viscosity: 0.6625 ± 0.067 mPa·s
  mass density: 785.23 ± 0.31 kg/m3
[2]; 308.15 K, x2 = 0.7574
  viscosity: 0.539 ± 0.054 mPa·s
  mass density: 781.16 ± 0.31 kg/m3
[2]; 308.15 K, x2 = 0.877
  viscosity: 0.4454 ± 0.045 mPa·s
  mass density: 774.15 ± 0.31 kg/m3
[2]; 308.15 K, x2 = 0.9588
  viscosity: 0.3326 ± 0.033 mPa·s
  mass density: 768.93 ± 0.31 kg/m3
